Data on one compound can be found in patent US20100120679A1, “Targeting NBS1-ATM Interaction To Sensitize Cancer Cells To Radiotherapy And Chemotherapy” (SOUTHERN RESEARCH INSTITUTE, priority 2006, published 2010).

One experiment deals with HeLa cells. In words: Colony formation assay (radiosensitivity), HeLa. On the procedure: Shown in A (HeLa), C (MO59J) and D (GM9607) are the susvival curves after indicated doses of radiation. Error bars represent +/−1 SEM, graphed are the mean of three independent experiments.
Colony formation assays: To determine the radiosensitivity, the colony forming assay was incorporated. Cells were harvested with 0.125% trypsin-0.05% EDTA, pelleted and re-suspended in 1 ml fresh media with a 22 g needle to disperse clumps prior to hemocytometer counting in trypan blue. Cells were then plated at limiting dilutions in […] and allowed to adhere overnight. Cultures were treated with PBS, R9, wtNIP, or scNIP for 1 hour, and irradiated (0-6Gy). Fresh peptides were added every four hours until 24 hours after IR, when the medium was replaced with peptide-free medium. Cultures were incubated for 10-12 days, harvested and stained with 0.5% crystal violet in methanol. Colony number was determined with a dissecting microscope. A population of >50 cells was counted as one colony, and the number of colonies was expressed as a percentage of the value for untreated mock irradiated control cells. The surviving curves were plotted by linear regression analyses and the D0 value represents the radiation dose that leads to 37% of survival. To determine the radiosensitizing potential of the peptides in comparison to other small molecule inhibitors, the sensitizing enhancement ratio (SER) was calculated based on the dose of radiation required to reduce survival to 37% in the presence of scNIP or wtNIP. The following formula was used: […]
Statistics: To establish statistical significance, Student's t-test was incorporated. The data were first fit to each experimental group over a dose range of 0-6Gy. Significant differences were established at p<0.05.
FIG. 6A depicts the survival curves for HeLa cells treated with R9, wtNIP, or scNIP over a dose range of 0 to 6 Gy.

The target in the next experiment is T1, NBS1 binding to MRE11 (Homo sapiens, UniProt P49959).
T1 construct: endogenous in cells; host or cells: HeLa
T1 sequence (P49959 1-708): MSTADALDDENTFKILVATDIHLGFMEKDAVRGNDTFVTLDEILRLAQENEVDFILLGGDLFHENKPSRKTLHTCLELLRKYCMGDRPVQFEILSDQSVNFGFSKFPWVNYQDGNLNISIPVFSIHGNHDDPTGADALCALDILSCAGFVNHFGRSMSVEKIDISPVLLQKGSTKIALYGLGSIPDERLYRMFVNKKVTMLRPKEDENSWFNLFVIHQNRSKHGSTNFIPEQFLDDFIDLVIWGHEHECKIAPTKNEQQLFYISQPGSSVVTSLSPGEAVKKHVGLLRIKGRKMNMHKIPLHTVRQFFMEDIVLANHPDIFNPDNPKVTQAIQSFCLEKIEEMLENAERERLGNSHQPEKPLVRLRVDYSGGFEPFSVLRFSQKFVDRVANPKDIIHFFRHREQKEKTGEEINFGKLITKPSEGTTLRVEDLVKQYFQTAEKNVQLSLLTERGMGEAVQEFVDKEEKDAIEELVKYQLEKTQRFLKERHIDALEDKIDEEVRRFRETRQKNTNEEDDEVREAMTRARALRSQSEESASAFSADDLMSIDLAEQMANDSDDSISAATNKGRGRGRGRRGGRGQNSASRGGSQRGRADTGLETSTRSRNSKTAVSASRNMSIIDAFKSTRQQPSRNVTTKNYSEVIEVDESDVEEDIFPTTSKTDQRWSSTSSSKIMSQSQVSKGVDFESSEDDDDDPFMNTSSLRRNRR
The experiment in a line: Co-immunoprecipitation of MRE11 with NBS1 in peptide-treated cells. Type of experiment: cell-based. The following applies: HeLa cells, four hours after peptide treatment. The method, then: HeLa cells treated with the NIP peptides were irradiated (0 or 6Gy). Immunoprecipitation was performed with a rabbit NBS1 antibody, and Western blotting was performed with monoclonal antibodies against ATM, NBS1 or MRE11.
Immunoprecipitation and Western blotting: For co-immunoprecipitation of ATM, NBS1 and MRE11, cells were lysed 1 hour in ice-cold lysis buffer, which consisted of 10 mM Tris-HCl (pH 7.5), 100 mM NaCl, 5 mM EDTA, 0.5% NP-40, 5 mM Na3VO4, 1 mM NaF, and 1 mM PMSF. After centrifugation, supernatants were incubated with indicated antibodies. After extensive washing with the lysis buffer, immunoprecipitates were analyzed by immunoblot using specific antibodies. For western blotting analysis, samples (cell lysates or immunoprecipitates) were separated on 4-12% SDS-poly-acrylamide gels, transferred to nitrocellulose membranes, and probed with various antibodies.
wtNIP Abrogated the NBS1-ATM Interaction: To investigate whether R9-conjugated NIP peptides could inhibit NBS1-ATM interactions, coimmunoprecipitation experiments were performed in cells treated with the NIP peptides. Four hours after peptide treatment, HeLa cells were harvested and subjected to immunoprecipitation using an anti-NBS1 antibody. The immunoprecipitates were then blotted with anti-ATM, NBS1, and MRE11 antibodies.

Experiment [1] has as its system γ-H2AX foci in HeLa cells. The experiment in a line: IR-induced γ-H2AX focus formation, HeLa. Type of experiment: cell-based, human. The text has this:
Error bars represent +/−1 SD, graphed are the mean of three independent experiments.
wtNIP Inhibits IR-Induced γ-H2AX and NBS1 pSer343 Focus Formation: One of the earliest responses to IR-induced DNA damage is the formation of γ-H2AX foci, which requires functional ATM (Burma et al., 2001; Furuta et al., 2003). […] Immunofluorescence microscopy was used to detect the presence of γ-H2AX foci in mock-irradiated or irradiated cells in the presence of R9, wtNIP or scNIP. […] Therefore, IR-induced γ-H2AX focus formation can be inhibited by wt-NIP.

In experiment [2] the test system is prostate cancer cell line DU-145. In words: Colony formation assay (radiosensitivity), DU-145. Format: cell-based, human. The method, then:
Colony number was determined with a dissecting microscope. […] The following formula was used: […]
Radiation survival curves were characterized based on Do to define the effect of NIP effect on radiosensitivity. D0 represents the mean lethal dose required for 37% survival and is a measure of the intrinsic radiosensitivity of the cell. D0 values for HeLa treated with wtNIP were 1.9 compared with 3.0 for cells treated with scNIP. To establish the statistical significance of wtNIP-induced radiosensitivity, Student's t test (paired two-sample for means) was incorporated. […] Significant differences (p<0.05) in clonogenic survival were observed between cells treated with wtNIP and those treated with DMEM, R9, or scNIP. The SER was 1.58. […] These observations have been confirmed in the prostate cancer cell line DU-145 with an SER of 1.46. Taken as a whole, they provide strong evidence for the radiosensitizing potential of the wtNIP peptide.

Peptide text beside a SMILES is read from it. * marks the point of attachment. Biotin = O=C1N[C@H]2[C@H](CS[C@H]2CCCCC(=O)*)N1

In the case of `CC(C)C[C@H](NC(=O)[C@H](CC(=O)O)NC(=O)[C@H](CC(=O)O)NC(=O)[C@H](C)NC(=O)[C@H](CC(C)C)NC(=O)[C@H](CO)NC(=O)[C@H](CCC(=O)O)NC(=O)[C@H](CCC(=O)O)NC(=O)[C@H](CCCCN)NC(=O)[C@H](CCCNC(=N)N)NC(=O)[C@H](CCCNC(=N)N)NC(=O)[C@H](CCCNC(=N)N)NC(=O)[C@H](CCCNC(=N)N)NC(=O)[C@H](CCCNC(=N)N)NC(=O)[C@H](CCCNC(=N)N)NC(=O)[C@H](CCCNC(=N)N)NC(=O)[C@H](CCCNC(=N)N)NC(=O)[C@H](CCCNC(=N)N)NC(=O)CCCC[C@@H]1SC[C@@H]2NC(=O)N[C@@H]21)C(=O)O` [wtNIP] (Biotin-RRRRRRRRRKEESLADDL-OH), in the experiment on HeLa cells, the “D0 (mean lethal dose required for 37% survival)” value is reported as 1.9. Besides, the “SER (dose required to reduce survival to 37%, scNIP versus wtNIP)” value in the experiment with HeLa cells is listed as 1.58. The sensitizer enhancement ratio in the experiment with HeLa cells (2Gy) was 1.66; in the experiment with HeLa cells (4Gy) it was 2.61; in the experiment on HeLa cells (6Gy), 3.12. In addition, in the experiment on HeLa cells (dose range 0 to 6 Gy), the “effect on radiosensitivity / IR-induced survival” value is on record as “can significantly decrease IR-induced survival”. The “NBS1 binding to MRE11” value at NBS1 binding to MRE11 is reported as “did not interfere with NBS1 binding to MRE11”. For the same compound, in experiment [1] (10 μM peptide, 30 minutes after 6Gy IR), the “average number of γ-H2AX foci/nucleus” value is recorded as 6.9 foci/nucleus. In addition, in experiment [1] (30 minutes after treatment with 6Gy IR), the “inhibition of γ-H2AX foci formation” value was “can inhibit γ-H2AX foci formation”. In addition, the SER in experiment [2] came out at 1.46.
